According to ChEMBL document CHEMBL5357075, “Innovative Therapeutic Strategies in TYK2-Targeted Treatments: From Cancer to Autoimmune Disorders” (ACS Med Chem Lett, 2024):

Tests used:
[1] = target: T1, Non-receptor tyrosine-protein kinase TYK2 (Homo sapiens, UniProt P29597); test: Inhibition of TYK2 in HEK-Blue alpha/beta cells pretreated for 60 mins followed by IFN-alpha stimulation for 16 to 18 hrs by Quanti-Blue based SEAP assay; assay type: cell-based
[2] = target: T1, Non-receptor tyrosine-protein kinase TYK2; test: Inhibition of TYK2 in HEK-Blue IL-23 cells pretreated for 60 mins followed by IL-23 stimulation for 22 to 24 hrs by Quanti-Blue based SEAP assay; assay type: cell-based

T1 sequence (P29597 whole entry): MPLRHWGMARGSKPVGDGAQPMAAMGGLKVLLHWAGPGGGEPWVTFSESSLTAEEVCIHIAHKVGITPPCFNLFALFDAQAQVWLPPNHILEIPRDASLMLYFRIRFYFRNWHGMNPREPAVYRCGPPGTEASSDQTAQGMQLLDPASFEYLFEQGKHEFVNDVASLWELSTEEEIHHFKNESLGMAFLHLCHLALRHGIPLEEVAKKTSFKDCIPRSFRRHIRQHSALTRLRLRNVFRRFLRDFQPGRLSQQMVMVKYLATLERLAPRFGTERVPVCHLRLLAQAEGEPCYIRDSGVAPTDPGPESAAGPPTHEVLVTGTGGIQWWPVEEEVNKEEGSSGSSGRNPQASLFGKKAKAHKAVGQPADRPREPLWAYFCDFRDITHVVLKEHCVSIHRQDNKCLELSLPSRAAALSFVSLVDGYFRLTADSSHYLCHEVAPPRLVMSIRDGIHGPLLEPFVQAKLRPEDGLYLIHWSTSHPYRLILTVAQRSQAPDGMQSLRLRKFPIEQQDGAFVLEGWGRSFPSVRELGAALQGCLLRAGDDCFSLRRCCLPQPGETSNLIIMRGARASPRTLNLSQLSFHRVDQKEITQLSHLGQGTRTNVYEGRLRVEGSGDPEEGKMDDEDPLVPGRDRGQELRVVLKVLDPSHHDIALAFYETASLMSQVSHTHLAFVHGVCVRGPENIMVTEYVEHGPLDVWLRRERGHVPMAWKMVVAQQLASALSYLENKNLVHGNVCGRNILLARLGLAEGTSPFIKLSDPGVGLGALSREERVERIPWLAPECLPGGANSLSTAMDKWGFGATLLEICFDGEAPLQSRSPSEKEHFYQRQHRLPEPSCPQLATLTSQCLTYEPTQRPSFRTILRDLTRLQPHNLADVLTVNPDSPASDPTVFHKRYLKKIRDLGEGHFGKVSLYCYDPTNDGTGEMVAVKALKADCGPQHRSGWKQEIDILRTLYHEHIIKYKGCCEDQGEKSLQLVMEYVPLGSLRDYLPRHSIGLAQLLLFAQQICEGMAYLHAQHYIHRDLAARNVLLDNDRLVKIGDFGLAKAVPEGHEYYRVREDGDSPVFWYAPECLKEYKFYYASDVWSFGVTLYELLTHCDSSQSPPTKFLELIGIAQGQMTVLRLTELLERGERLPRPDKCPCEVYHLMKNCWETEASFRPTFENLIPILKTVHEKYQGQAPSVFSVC

[2H]C([2H])([2H])CC(=O)c1cnc(NC(=O)C2CC2)cc1Nc1cccc2c1N(C)Cc1nc(C)nn1-2 was tested, and the IC50 [1] was 30 nM and the IC50 [2] was less than 30 nM.
Work on [2H]C([2H])([2H])CC(=O)c1cnc(NC(=O)C2CC2)cc1Nc1cccc2c1N(C)[C@@H](C)c1nn(C)nc1-2 yielded an IC50 [1] of less than 30 nM and an IC50 [2] of less than 30 nM.
In the case of [2H]C([2H])([2H])CC(=O)c1cnc(NC(=O)C2CC2)cc1Nc1nccc2c1N(C)Cc1nn(CC)nc1-2, the IC50 [1] is reported as 30 nM and the IC50 [2] is reported as less than 30 nM.
